The subject of data set [1] is acetaminophen bioactivation. The conditions noted are these: cited from earlier work.
Data set [2] deals with acetaminophen-induced hepatotoxicity. In words: Protective effect against acetaminophen overdose in rats (serum GPT, LDH, liver damage). The data set is classed as in vivo, rat (male Fisher 344). The conditions noted are these: for minimal effective dose: Rattus norvegicus, read-out: low dose at which protective effect was demonstrated. The method, then: Brady et al., "Effect of […] […] Biochem. […] Extent of tissue damage was determined using a […]-6 Image Analysis System (Advanced Imaging Concepts, Inc.). […] All determinations were made without knowledge of treatment group. […] All experiments were replicated at least once.

For data set [3] the test system is unchanged. In words: animal or person. The conditions noted are these: for minimal effective dose: read-out: low dose at which protective effect was demonstrated. An excerpt:
Blood samples were obtained from the jugular vein of CO2 -anesthetizedanimals. The blood was allowed to clot at room temperature and serum was separated by centrifugation. […] Biochem. Biophys.
Randomly-selected samples of the major hepatic lobe were fixed in 10% buffered formalin for histological evaluation. Samples were subsequently embedded in Paraplast (Fisher Scientific) and sectioned at 6 μm on a rotary microtome. Tissue sections were stained with hematoxylin-eosine-phloxine for examination. Extent of tissue damage was determined using a Presage CV-6 Image Analysis System (Advanced Imaging Concepts, Inc.). Images of randomly-selected slides (3 slides/animal, 2-3 animals/group) containing full cross sections of the major hepatic lobe were projected onto a computer screen and the image captured. The areas of damage were then outlined on the screen and the areas quantated using interactive software. The area of damage was shown as a percentage of the total hepatic area for each section. All determinations were made without knowledge of treatment group.
Data were analyzed by the Newman-Keuls multiple comparison procedure on the rank score analysis.
All experiments were replicated at least once.
As a Comparative Example, 300 mg/kg N-acetylcysteine was also administered immediately after administration of 0.2 g/kg acetaminophen.
As a Comparative Example, 300 mg/kg N-acetylcysteine was also administered 1 hour after administration of 0.2 g/kg acetaminophen.

The test system of data set [4] is P-450 2E1. Description: Hepatic microsomal NDMA demethylase activity after a single oral dose in mice. Particulars: for NDMA demethylase activity, % of the control level: 50 mg/kg single oral dose. The data set is classed as in vivo, mouse. The method, then:
(§1) Biochem. Biophys. 238:42-48 (1985).
(§2) In Example 3, this effect was studied in mice. In Example 3, changes in hepatic monooxygenase enzymes after a single oral dose of DASO2 were studied. DASO2 (50 mg/kg) was administrated to mice intragastrically and sacrificed at the indicated time. Control (0 time) mice received distilled water only.
(§3) Hepatic microsomal NDMA demethylase activity (O) is expressed as nmol HCHO produced/min/mg. Pentoxyresorufin ([ ]) and ethoxyresorufin dealkylase activities are expressed as pmol resorufin produced/min/mg. Each point represents the mean ±S.D. of five separate microsomal preparations. *p<0.05 compared to control.

A further data set concerns P-450 1A2. Description: Hepatic microsomal ethoxyresorufin (EORR) dealkylase activity after a single oral dose in mice. Type of data set: in vivo, mouse. The method, then: as §1, §2, §3
Data set [5] has as its system P-450 2E1. The conditions noted are these: cited from earlier work; for liver microsomal P-450 2E1-dependent (NDMA demethylase) activity: treatment of rats.
The subject of data set [6] is P-450 2E1. The conditions noted are these: isolated rat liver microsomes; cited from earlier work.
Data set [7] concerns p-nitrophenol hydroxylase. The conditions noted are these: isolated rat liver microsomes; cited from earlier work.
The test system of data set [8] is hepatotoxicity of N-nitrosodimethylamine. The conditions noted are these: pre-treatment of rats; cited from earlier work.
Data set [9] relates to 1,2-dimethylhydrazine-induced hepatotoxicity and carcinogenesis. Particulars: rats; cited from earlier work.
For data set [10], the system named is carbon tetrachloride hepatotoxicity. Particulars: cited from earlier work.
The mark [11] stands for this setting: 5 mg/kg oral, 1 h after APAP 0.4 g/kg.
[12] abbreviates: 5 mg/kg oral, 3 hours after APAP 0.4 g/kg.
Where [13] appears, read: 15 mg/kg oral, 1 h after APAP 0.4 g/kg.
The mark [14] stands for this setting: 50 mg/kg oral, 1 hour after APAP 0.4 g/kg.
The mark [15] stands for this setting: 50 mg/kg oral, 1 hour after APAP 0.4 g/kg, mean ± SD of five rats.
[16] abbreviates: 50 mg/kg oral, 3 hours after APAP 0.4 g/kg.
[17] abbreviates: 50 mg/kg oral, 6 hours after APAP 0.4 g/kg.
[18] abbreviates: 5 mg/kg oral, immediately (0 min) after APAP 0.2 g/kg.
[19] abbreviates: 10 mg/kg oral, 20 min after APAP 0.2 g/kg.
Where [20] appears, read: 25 mg/kg oral, 20 min after APAP 0.2 g/kg.
[21] abbreviates: 25 mg/kg oral, 1 hour after APAP 0.2 g/kg.
Setting [22] is: 25 mg/kg oral, immediately (0 min) after APAP 0.2 g/kg.
[23] abbreviates: 50 mg/kg oral, immediately (0 min) after APAP 0.2 g/kg.

The structures appear in SMILES notation. Where “and” joins values, the source holds several entries; their conditions need not be identical. Equal values may be shown once.

For `CN/C(=N/CCSCc1nc[nH]c1C)NC#N` [cimetidine], in data set [1], the “inhibition of acetaminophen bioactivation” value is “inhibit acetaminophen bioactivation”.
With `C[S+](C)[O-]` [dimethyl sulfoxide], the “inhibition of acetaminophen bioactivation” value in data set [1] was “inhibit acetaminophen bioactivation”.
For the compound `C=CCS(=O)(=O)CC=C` [DASO2, diallyl sulfone], the “Extent of liver necrosis (grade)” value is given as 1 in [2] (setting [11]); 1 in data set [2] (setting [13]); 0 in data set [2] (50 mg/kg oral, 1 h after APAP 0.4 g/kg); 1 in data set [2] (50 mg/kg oral, 3 h after APAP 0.4 g/kg); 2 in data set [2] (50 mg/kg oral, 6 h after APAP 0.4 g/kg). In addition, the GPT in [2] (setting [11]) is 162 ± 27.3 U/L; in data set [2] (setting [12]) it was 139 ± 46 U/L; in [2] (setting [13]), 52 ± 8.2 U/L; in data set [2] (setting [15]) it was 48 ± 9 U/L and 48 ± 9.6 U/L; in data set [2] (setting [16]), 133 ± 64 U/L; in data set [2] (setting [17]) it was 182 ± 47 U/L. The GPT is 51 ± 8 U/L in data set [3] (setting [18]); 212 ± 1 U/L in data set [3] (setting [19]); 89 ± 13 U/L in data set [3] (setting [20]); 110 ± 70 U/L in data set [3] (setting [21]); 66 ± 18 U/L and 84 ± 37 U/L in data set [3] (setting [22]); 79 ± 5 U/L in data set [3] (setting [23]). The LDH is 377 ± 71 U/L in data set [2] (setting [11]); 222 ± 44 U/L in data set [2] (setting [13]); 279 ± 50 U/L and 279 ± 41 U/L in data set [2] (setting [15]); 315 ± 120 U/L in [2] (setting [16]); 375 ± 111 U/L in [2] (setting [17]); 433 ± 98 U/L in data set [3] (setting [18]). Also, the LDH in data set [3] (setting [19]) was 16639 ± 8578 U/L; in data set [3] (setting [20]), 648 ± 231 U/L; in data set [3] (setting [21]), 1340 ± 1568 U/L; in [3] (setting [22]), 611 ± 252 U/L; in [3] (setting [23]), 772 ± 1138 U/L and 772 ± 138 U/L. The “Extent of liver damage” value is on record as 23-38% in data set [2] (setting [12]); 0-5% in data set [2] (setting [14]); 4-8% in [2] (setting [16]); 21-40% in data set [2] (setting [17]); 3-5% in data set [3] (setting [18]); 3-10% in [3] (setting [21]). Also, the entries for the “Extent of liver damage” value in data set [3] (setting [22]) and in data set [3] (setting [23]) were 5-10% and 4-9%, respectively. Besides, the minimal effective dose in data set [2] (rats) and in [3] (Mus musculus) was 5 mg/kg throughout. For the same compound, the Survival in data set [3] (setting [18]), in data set [3] (setting [19]), in [3] (setting [20]), in data set [3] (setting [21]), in [3] (setting [22]) and in data set [3] (setting [23]) was 5/5 in each case. The ED (maximal) in [3] (Mus musculus, read-out: dose sufficient to produce maximal protection) turned out to be 5 mg/kg. The “NDMA demethylase activity, % of the control level” value with P-450 2E1 [4] (0.5 hours) is recorded as 31%; in the data set with P-450 2E1 [4] (1 hour), 54%; with P-450 2E1 [4] (3 hours), 49%; with P-450 2E1 [4] (6 hours), 73%. The “hepatic cytochrome P-450 2E1 activity” value with P-450 2E1 [4] (oral administration, mice) is “rapid decreases”. The “ethoxyresorufin (EORR) dealkylase activity, % of control level” value with P-450 1A2 (50 mg/kg single oral dose, 0.5 hours) turned out to be 79%; with P-450 1A2 (50 mg/kg single oral dose, 1 hour), 39%; in the data set with P-450 1A2 (50 mg/kg single oral dose, 3 hours), 52%; with P-450 1A2 (50 mg/kg single oral dose, 6 hours) it was 46%. For the same compound, the EORR dealkylase activity entry with P-450 1A2 (50 mg/kg single oral dose, after 15 hours) was “returned to control levels”. Also, the “hepatic cytochrome P-450 1A2 activity” value with P-450 1A2 (oral administration, mice) is “rapid decreases”. The “liver microsomal NDMA demethylase activity” value in the data set with P-450 2E1 [5] (200 mg/kg, rats) was “marked decrease”. Besides, the “liver microsomal P-450 2E1-dependent (NDMA demethylase) activity” value (“liver microsomal P-450 2E1-dependent” below) with P-450 2E1 [5] is listed as “decreased”.
With `C=CC[S+]([O-])CC=C` [DASO, diallyl sulfoxide], the “inhibition of P-450 2E1-catalyzed NDMA demethylase” value in the data set with P-450 2E1 [6] is “competitively”. Besides, the “inhibition of p-nitrophenol hydroxylase” value in data set [7] is “competitively”. In the data set on P-450 2E1 [5], the “liver microsomal P-450 2E1-dependent” value is “decreased”.
For `C=CCSCC=C` [DAS, diallyl sulfide], the entries for the “Extent of liver damage” value in data set [2] (setting [14]), in data set [3] (setting [21]) and in [3] (setting [22]) were 5-13%, 16-39% and 8-17%, respectively. Besides, the GPT in data set [2] (setting [15]) is listed as 70 ± 13 U/L; in data set [3] (setting [20]), 158 ± 41 U/L; in data set [3] (setting [21]) it was 179 ± 2 U/L; in data set [3] (setting [22]) it was 143 ± 50 U/L. Also, the LDH is on record as 220 ± 82 U/L in data set [2] (setting [15]), 2374 ± 3533 U/L in data set [3] (setting [20]), 15609 ± 7143 U/L in data set [3] (setting [21]) and 1899 ± 1724 U/L in data set [3] (setting [22]). Besides, the protection against hepatotoxicity entry in data set [2] (50 mg/kg, 1 hr after APAP, rats) is “prevented the elevation of serum GPT and LDH levels, but did not completely prevent liver damage”. Besides, the minimal effective dose in [2] (rats) and in data set [3] (Mus musculus) was 5 mg/kg each time. The Survival in data set [3] (setting [20]) is listed as 5/5; in data set [3] (setting [21]) it was 3/5; in [3] (setting [22]), 5/5. In data set [3] (25 mg/kg, immediately after acetaminophen, mice), the “protection against acetaminophen toxicity” value is “although preventing the elevation of the LDH level, only partially prevented liver damage and had little or no effect on the elevated serum GPT level”. Moreover, the “inhibition of P-450 2E1-catalyzed NDMA demethylase” value with P-450 2E1 [6] is reported as “competitively”. Further, in data set [7], the “inhibition of p-nitrophenol hydroxylase” value was “competitively”. In addition, the “inhibition of hepatotoxicity of N-nitrosodimethylamine” value in data set [8] is listed as “inhibited the hepatotoxicity”. Also, the “protection against 1,2-dimethylhydrazine-induced hepatotoxicity and carcinogenesis” value in data set [9] is “protect toxicity”. Also, the “liver microsomal P-450 2E1-dependent” value in the data set on P-450 2E1 [5] is “decreased”. The “inhibition of hepatotoxicity of CCl4” value in [10] (pre-treatment of rats) is given as “inhibited the hepatotoxicity”. Besides, the “protection against carbon tetrachloride hepatotoxicity” value in data set [10] (rat, in vivo) is given as “protect toxicity associated with carbon tetrachloride hepatotoxicity”.
As for `CCO` [ethanol], the “inhibition of acetaminophen bioactivation” value in data set [1] is “inhibit acetaminophen bioactivation”.

These data come from patent publication US5474757A, “Prevention of acetaminophen overdose toxicity with organosulfur compounds” (priority 1992, dated 1995).
